The values that follow are results of earlier work, collected in patent US20040259850A1, “Method for treating or preventing symptoms of hormonal variation including hot flashes” (priority 2001, published 2004).

For one data set, the system named is hot flashes in patients. The settings on record: cited from earlier work; for amelioration of hot flashes, general statement: comparison of clonidine with estrogen.
For data set [1] the following is noted: as stated in the background; cited from earlier work.

With estrogen, the “amelioration of hot flashes, general statement” value in the data set with hot flashes in patients is recorded as “can virtually eliminate them”.

Take `Clc1cccc(Cl)c1N=C1NCCN1` [clonidine]: the “amelioration of hot flashes, general statement” value with hot flashes in patients is “only mildly ameliorates hot flashes”. The “effect on frequency and severity of hot flashes” value in the data set with hot flashes in patients (transdermal, tamoxifen-treated women (Goldberg et al. 1994)) is on record as “only a moderate effect”.

With `CN1CCN2c3ncccc3Cc3ccccc3C2C1` (centres unmarked) [Mirtazapine], in the data set on hot flashes in patients (four case reports (Waldinger et al. 2000)), the “effect on hot flushes and perspiration bouts” value is listed as “appears to have an ameliorating effect”.

`COc1ccc(C(CN(C)C)C2(O)CCCCC2)cc1` (centres unmarked) [venlafaxine]: the “effect on hot flashes” value in the data set on hot flashes in patients (early studies, survivors of breast cancer (Loprinzi et al. 2000)) is on record as “effective non-hormonal method to diminish hot flashes”. Moreover, the side effects entry in data set [1] is “mouth dryness, decreased appetite, nausea and constipation”.

For `CC(=O)O[C@]1(C(C)=O)CC[C@H]2[C@@H]3C=C(C)C4=CC(=O)CC[C@]4(C)[C@H]3CC[C@@]21C` [megestrol acetate], in the data set with hot flashes in patients (low dose oral, men and women, short term study (Loprinzi et al. 1994)), the “effect on frequency of hot flashes” value is listed as “reduce the frequency of hot flashes”. For the same molecule, the side effects result in data set [1] is on record as “chronic adrenal insufficiency can be a side effect”.
